Results on one molecule are retold here after article PMC3481155, “AhR activation underlies the CYP1A autoinduction by A-998679 in rats” (Frontiers in Genetics, 2012).

Molecules are shown by their SMILES.

Data set [1] can be described thus: 5-day rat exploratory toxicology study (liver weight, clinical chemistry, histopathology). In kind it is in vivo. The following applies: 5 days. The procedure:
All animal experiments were conducted in accordance with the Guiding Principles in the Use of Animals in Toxicology (http://www.toxicology.org/ai/air/air6.asp) and were approved by Abbott's Institutional Animal Care and Use Committee (IACUC). Male Sprague-Dawley rats [Crl:CD®(SD)IGS BR], weighing ~250 g at study initiation were obtained from Charles River Laboratories, Inc. (Wilmington, MA). Rats were housed singly in ventilated, stainless steel, wire-bottom hanging cages and fed non-certified Rodent Chow (Harlan Labs, Madison, WI), and water ad libitum and acclimated for at least 5 days after arrival. Rats were randomly assigned to various treatment groups (3 rats/group) and were dosed once daily by oral gavage with vehicle (0.2% hydroxypropylmethylcellulose at a dose volume of 10 ml/kg) or with 30, 100, or 200 mg/kg of A-998679. All rats were fasted overnight after their last dose, weighed and sacrificed under isoflurane anesthesia. For histopathological evaluation, liver, heart, kidney, spleen, bone (sternum) with marrow, gastrointestinal tract (duodenum with pancreas, jejunum, ileum, cecum, and colon), thymus, and lung were fixed in formalin, routinely processed, and embedded in paraffin. Paraffin sections (4 μm) were stained with hematoxylin and eosin. Liver and small intestine (jejunum) were also flash frozen in liquid nitrogen and stored at −80°C until processing for gene expression profiling. Serum clinical chemistry parameters were quantified using an Aeroset Clinical Chemistry Analyzer (Abbott Laboratories, Abbott Park, IL) and included alanine amino transferase (ALT), aspartate amino transferase (AST), gamma glutamyltransferase (GGT), and alkaline phosphatase (ALP) activities.

Data set [2] relates to CYP1A1. The data set can be described thus: CYP1A1 mRNA induction in primary human hepatocytes. In kind it is cell-based. The settings on record: 24 h, dose-dependent. How it is done:
Rat hepatocytes were isolated in a perfusion procedure as described previously (Elliget and Kolaja, [1983]; Waring et al., [2001]). The beagle dog hepatocytes were isolated in the same manner, except for adjustment of flow rate and buffer volume to scale to liver size. Cells were plated at a seeding density of 1.0 × 10^6 cells per well on 6-well, collagen-type I coated plates (BD Biosciences, Bedford, MA) in hepatocyte plating medium (Celsis, Baltimore, MD). Cells were allowed to attach for 24 h in a 37°C humidified incubator with a 5% CO2 atmosphere and were dosed for 24 h (rat) or 48 h (dog) with vehicle control [0.1% DMSO (v/v)] or 10 μM A-998679 in fresh treatment media (Celsis hepatocyte incubation media) every 24 h. After the last incubation, cells were lysed in 1 ml of Qiazol (Qiagen) and stored at −80°C until RNA isolation. Cryopreserved human hepatocytes (donor designation Hu4198; Invitrogen Life Technologies, Carlsbad, CA) were thawed and plated according to the manufacturer's protocol and allowed to incubate for 24 h. […]
RNA samples were diluted with RNase-free molecular biology grade water to a concentration of 20 ng/μl total RNA. […] Results were analyzed by calculating the fold change of CYP1A1 and/or CYP1A2 mRNA levels normalized to 28S rRNA (ΔΔ Ct) in compound treated cells or tissues compared to vehicle levels. […]

Data set [3] relates to Mrp2. The data set can be described thus: Mrp2 expression in rat small intestine. In kind it is in vivo. The settings on record: treated rats; data not shown. The procedure:
All animal experiments were conducted in accordance with the Guiding Principles in the Use of Animals in Toxicology (http://www.toxicology.org/ai/air/air6.asp) and were approved by Abbott's Institutional Animal Care and Use Committee (IACUC). Male Sprague-Dawley rats [Crl:CD®(SD)IGS BR], weighing ~250 g at study initiation were obtained from Charles River Laboratories, Inc. (Wilmington, MA). Rats were housed singly in ventilated, stainless steel, wire-bottom hanging cages and fed non-certified Rodent Chow (Harlan Labs, Madison, WI), and water ad libitum and acclimated for at least 5 days after arrival. […] Serum clinical chemistry parameters were quantified using an Aeroset Clinical Chemistry Analyzer (Abbott Laboratories, Abbott Park, IL) and included alanine amino transferase (ALT), aspartate amino transferase (AST), gamma glutamyltransferase (GGT), and alkaline phosphatase (ALP) activities.
Frozen liver or jejunum were immediately added to 4 ml of TRIzol reagent (Invitrogen Life Technologies) and homogenized using a Polytron 300D homogenizer (Brinkman Instruments, Westbury, NY). […] Nucleic acid concentration was determined by OD 260 nm (Smart-Spec, Bio-Rad Laboratories, Hercules, CA), and RNA integrity was evaluated using an Agilent 2100 bioanalyzer (Agilent Technologies, Foster City, CA). […]

Regarding `N#Cc1cccc(-c2noc(-c3cccnc3)n2)c1` [A-998679, 3-(5-pyridin-3-yl-1,2,4-oxadiazol-3-yl) benzonitrile], the “increase in relative liver weight” value in data set [1] (200 mg/kg/day) is ~ 25%. Also, in data set [1] (30-200 mg/kg/day), the clinical chemistry parameters result is recorded as “No significant changes” and the histopathology entry is recorded as “No significant changes”. The “change in relative liver weight” value in data set [1] (lower doses (30 and 100 mg/kg/day)) was “no change”. Moreover, the “lowest concentration inducing CYP1A1 mRNA” value in data set [2] was found to be 3 µM. Besides, the “expression of Mrp2 in small intestine” value in data set [3] is “increased expression”.
